Laboratory results taken from ChEMBL document CHEMBL1122133, “(+/-)-cis-2-acetoxycyclobutyltrimethylammonium iodide: a semirigid analogue of acetylcholine” (1982).

Species: Cavia porcellus
Test: Evaluated for muscarinic activity using guinea pig ilea
Type: functional

CC(=O)O[C@H]1CC[C@H]1[N+](C)(C)C.[I-]
ID50: 83 nM

CC(=O)O[C@@H]1CC[C@H]1[N+](C)(C)C.[I-]
ID50: 68 nM
